Source: publication PMC4669789, “Selective inhibition of HDAC8 decreases neuroblastoma growth in vitro and in vivo and enhances retinoic acid-mediated differentiation” (Cell Death & Disease, 2015)

What was measured:
[1] = test system: PBMC; assay: Western blot of histone 4 and α-tubulin acetylation in PBMC of treated mice; format: in vivo, mouse; details: MTD concentrations, 2 h after intraperitoneal injection
Experimental: Whole blood (100 μl) was collected from the femoral vein of untreated athymic NMRI nude mice (HsdCpb:NMRI-Foxn1^nu; Harlan Laboratories Inc.), and respective animals were killed 2 h after intraperitoneal injection of substances. For the analysis of whole acetylation levels, mice were killed at half-life time of the inhibitors. Whole blood with heparin was added to RBC lysis buffer (diluted 1 : 10) (BioLegend, San Diego, CA, USA) at a ratio of 1 : 4. Next, red blood cell lysis was performed according to the manufacturer's instructions. PBMCs were lysed in SDS lysis buffer for western blot or processed for FACS analysis.
Western blot analysis was performed as described previously.[15] For detection of phosphoproteins, PhosStop (Roche, Penzberg, Germany) was added to the lysis buffer. The following antibodies were used for detection: anti-HDAC8 (H-145) (polyclonal; Santa Cruz, Santa Cruz, CA, USA), anti-acetyl tubulin (clone 6-11B-1; Sigma), anti-acetyl-histone H4 (polyclonal; Upstate, Lake Placid, NY, USA), anti-acetyl-SMC3 (provided by Prof. K Shirahige, University of Tokyo, Tokyo, Japan), anti p21^waf1/cip1 (clone CP74; Merck), anti-Trk (C-14) (polyclonal; Santa Cruz), anti-neurofilament-M (polyclonal; Merck), anti-β-actin (clone AC-15; Sigma), anti-P-CREB (Ser133; Cell Signaling, Danvers, MA, USA), anti-CREB (48H2; Cell Signaling) and anti-GAPDH (clone 6C5; Merck).

[2] = test system: NMRI Foxn1 nude mice; assay: Blood parameters (clinical chemistry, hematology) at MTD; format: in vivo; details: n=8, mean ±S.D.
Experimental: (§1) Each dose was tested in a cohort of three animals. Resulting MTDs were validated within cohorts of eight animals for each inhibitor. […] As a reference, the blood of 12 untreated NMRI Foxn1 nude mice was analyzed. […] Vorinostat was used as a control for unselective HDAC inhibition.
(§2) DLTs were monitored by observation of general condition and determination of body weight. We used several criteria for objectively measuring DLT. These included a decrease in body weight of ≥20% compared with baseline body weight, blood analysis of standard parameters for clinical chemistry and hematology (central laboratory of University Hospital Heidelberg, Heidelberg, Germany) and organ histopathology (formalin-fixed, paraffin-embedded organs), by H&E stain for the detection of necrosis (Prof. Dr. AD Gruber, Institute for Veterinary Pathology, Berlin, Germany).

[3] = target: T1, HDAC6 (Homo sapiens, UniProt Q9UBN7); assay: In vitro HDAC activity assay (Reaction Biology); format: biochemical
T1 sequence (Q9UBN7 1-1215): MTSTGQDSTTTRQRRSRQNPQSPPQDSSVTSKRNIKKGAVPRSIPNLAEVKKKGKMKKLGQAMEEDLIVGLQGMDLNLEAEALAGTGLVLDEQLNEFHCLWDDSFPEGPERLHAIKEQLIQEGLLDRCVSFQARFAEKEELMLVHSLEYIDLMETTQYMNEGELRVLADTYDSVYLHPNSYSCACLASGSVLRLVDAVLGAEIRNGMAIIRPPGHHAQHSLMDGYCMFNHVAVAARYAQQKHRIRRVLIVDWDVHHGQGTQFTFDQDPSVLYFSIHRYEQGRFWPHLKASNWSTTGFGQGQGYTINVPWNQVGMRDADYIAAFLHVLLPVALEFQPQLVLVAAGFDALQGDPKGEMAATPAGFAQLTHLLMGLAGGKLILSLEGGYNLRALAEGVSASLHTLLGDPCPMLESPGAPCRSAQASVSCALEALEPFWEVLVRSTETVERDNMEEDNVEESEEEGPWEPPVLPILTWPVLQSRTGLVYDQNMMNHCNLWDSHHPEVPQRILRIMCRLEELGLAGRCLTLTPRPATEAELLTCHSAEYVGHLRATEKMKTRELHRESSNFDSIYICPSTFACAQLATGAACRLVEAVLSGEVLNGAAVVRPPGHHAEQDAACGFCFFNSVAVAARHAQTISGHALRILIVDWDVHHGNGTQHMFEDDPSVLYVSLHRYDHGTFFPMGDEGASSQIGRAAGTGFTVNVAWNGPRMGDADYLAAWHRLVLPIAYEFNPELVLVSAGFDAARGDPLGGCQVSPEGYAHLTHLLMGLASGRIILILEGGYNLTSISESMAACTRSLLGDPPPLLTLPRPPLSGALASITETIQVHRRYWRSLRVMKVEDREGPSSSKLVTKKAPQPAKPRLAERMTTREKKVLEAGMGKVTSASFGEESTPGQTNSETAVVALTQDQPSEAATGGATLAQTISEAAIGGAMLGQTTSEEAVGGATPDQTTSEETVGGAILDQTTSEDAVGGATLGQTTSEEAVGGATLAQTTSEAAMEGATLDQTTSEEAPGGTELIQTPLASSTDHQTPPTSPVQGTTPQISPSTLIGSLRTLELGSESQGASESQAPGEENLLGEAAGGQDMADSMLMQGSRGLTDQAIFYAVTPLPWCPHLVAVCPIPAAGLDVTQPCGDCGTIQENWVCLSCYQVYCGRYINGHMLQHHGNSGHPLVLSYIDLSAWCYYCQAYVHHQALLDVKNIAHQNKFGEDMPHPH
Experimental: Peptide substrate was conjugated with AMC. […] The HDAC reaction was performed at 30 °C for 2 h before adding the developer reagent. The free AMC was detected with excitation of 360 nm and emission 460 nm at kinetic mode for 90 min. IC50 values were calculated with GraphPad Prism version 3.0a (GraphPad Software Inc., San Diego, CA, USA).

[4] = Determination of MTD and dose-limiting toxicities; details: NMRI Foxn1 nude, mouse, in vivo, ip
Experimental: as §1, §2

[5] = test system: NMRI Foxn1 nude mice; assay: Determination of MTD and dose-limiting toxicities
Experimental: as §1, §2

[6] = test system: PBMCs; assay: Whole lysine acetylation in PBMC after intraperitoneal administration (FACS); format: in vivo, mouse; details: 50 mg/kg/d intraperitoneal; solvent 32.1
Experimental: Both inhibitors were intraperitoneally injected into NMRI Foxn1 nude mice in increasing doses from 40 up to 400 mg/kg per day for 2 × 5 days. Each dose was tested in a cohort of three animals. Resulting MTDs were validated within cohorts of eight animals for each inhibitor. […] As a reference, the blood of 12 untreated NMRI Foxn1 nude mice was analyzed. […] Vorinostat was used as a control for unselective HDAC inhibition.
Cells were permeabilized by incubation with 50 μg/ml digitonin for 6 min at RT. Cells were incubated with primary antibody overnight at 4 °C. After staining with Cy3-conjugated anti-rabbit antibody, cells were analyzed by FACS using CellQuest software (BD Biosciences, San Jose, CA, USA).

Compound: O=C(NO)c1cccc2ccccc12 [Cpd2, 1-naphthohydroxamic acid]
- tubulin and histone 4 acetylation in PBMC [1]: absence of tubulin acetylation and absence of histone 4 acetylation
- Hematocrit ([2]; normal range 0.3–0.4): 0.4±0.01 l/l
- Uric acid ([2]; normal range 0.4–3.2): 0.9 ± 1.0 mg/dL
- Leukocytes ([2]; normal range 1.8–6.1): 4.4 ± 1.8 nL⁻¹
- Calcium ([2]; normal range 2.1–2.4): 2.4 ± 0.4 mmol/L
- Potassium ([2]; normal range 3.8–6.4): 6.9 ± 2.2 mmol/L
- Erythrocytes ([2]; normal range 5.5–8.2): 7.6 ± 0.3 pL⁻¹
- Hemoglobin ([2]; normal range 9.4–12.7): 12.4 ± 0.7 g/dL
- Urea ([2]; normal range 17.4–38.3): 23.5 ± 6.4 mg/dL
- AP ([2]; normal range 62.5–117.6): 123.8±35.8 U/l
- Chloride ([2]; normal range 97.3–109.7): 99.9 ± 2.2 mmol/L
- Sodium ([2]; normal range 123.4–135.7): 136.8 ± 5.3 mmol/L
- Glucose ([2]; normal range 176.8–238.6): 187.8 ± 39.1 mg/dL
- Thrombocytes ([2]; normal range 242.5–806.8): 682.0 ± 151.1 nL⁻¹
- GGT ([2]; normal range −1.9 to 1.0): −2.0±1.0 U/l
- IC50 ([3]; cell-free, read-out: IC50 values of HDAC8 inhibitors, HDAC6): 75.6 µM
- concentrations above which HDAC6 and HDAC1 are potential off-target HDACs ([3]; from cell-free assays of HDACs 1–11): above 75 μM
- MTD [4]: 50 mg/kg/day
- Dose-limiting toxicities (DLTs) ([5]; intraperitoneal, increasing doses 40 up to 400 mg/kg per day): weight loss and signs of liver toxicity
- body weight and blood parameters at MTD ([5]; mouse, in vivo): neither body weight (Figure 2a) nor blood parameters were critically changed
- whole acetyl-lysine mean fluorescent values (Blank-corrected), PBMCs [6]: 39.2
